Reference: patent US11053251B2, “GPR35 modulators” (Prometheus Biosciences, Inc., priority 2019, dated 2021)

Tests used:
[1] = target: Human GPR35 (Homo sapiens, UniProt Q9HC97); experiment: Beta-Arrestin Assay (Tango U2OS cells, LiveBLAzer-FRET B/G); type: cell-based; details: Human GPR35 expressing Tango U2OS cells, 5 hours treatment
In short: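 Tango U2OS cells expressing GPR35 were plated at 10,000 cells/well overnight, then treated with serially diluted compounds for 5 h. Beta-arrestin recruitment was read by LiveBLAzer-FRET B/G after a 2 h substrate incubation, with zaprinast as positive control. EC50 came from a four-parameter dose-response fit.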

[2] = target: Human GPR35 (Homo sapiens, UniProt Q9HC97, S294R); experiment: Alternative Beta-Arrestin Assay (JumpIn 294R Tango U2OS cells, LiveBLAzer-FRET B/G); type: cell-based; details: Human GPR35 expressing JumpIn 294R Tango U2OS cells, 5 hours treatment
In short: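 U2OS Tango cells expressing human GPR35 S294R, plated overnight, exposed to serially diluted compounds for 5 hours. β-lactamase reporter read with LiveBLAzer-FRET B/G (CCF4-AM) after 2 h; EC50 from four-parameter fit, zaprinast as positive control.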

Sequence of Human GPR35 (Homo sapiens, UniProt Q9HC97, S294R) (Q9HC97 whole entry S294R): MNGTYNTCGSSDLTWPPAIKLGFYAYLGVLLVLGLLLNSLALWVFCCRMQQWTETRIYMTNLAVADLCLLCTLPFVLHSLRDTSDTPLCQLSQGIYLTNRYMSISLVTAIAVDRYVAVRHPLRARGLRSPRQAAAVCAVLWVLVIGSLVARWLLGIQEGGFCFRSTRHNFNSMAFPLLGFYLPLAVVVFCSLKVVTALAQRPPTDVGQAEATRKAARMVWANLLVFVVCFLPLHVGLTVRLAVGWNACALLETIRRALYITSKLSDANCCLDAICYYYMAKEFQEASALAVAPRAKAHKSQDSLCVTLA
Sequence of Human GPR35 (Homo sapiens, UniProt Q9HC97) (Q9HC97 whole entry): as the sequence (Q9HC97 whole entry S294R) above, with R294S counted along it

Compound | EC50 [1] | EC50 [2]
CCOc1cc(NCC(=O)O)ccc1-c1nc2[nH]nnc2c(=O)[nH]1 [Compound 170, (3-ethoxy-4-(7-oxo-6,7-dihydro-3H-[1,2,3]triazolo[4,5-d]pyrimidin-5-yl)phenyl)glycine] | ≤ 10 µM | ≤ 10 µM
CCOc1cc(C(=O)N2CCCCC2C(=O)O)ccc1-c1nc2[nH]nnc2c(=O)[nH]1 (stereo not shown) [Compound 171, 1-(3-ethoxy-4-(7-oxo-6,7-dihydro-3H-[1,2,3]triazolo[4,5-d]pyrimidin-5-yl)benzoyl)piperidine-2-carboxylic acid] | > 10 µM | 10 to 50 µM
CCOc1cc(C(=O)N2CCCC(C(=O)O)C2)ccc1-c1nc2[nH]nnc2c(=O)[nH]1 (stereo not shown) [Compound 172, 1-(3-ethoxy-4-(7-oxo-6,7-dihydro-3H-[1,2,3]triazolo[4,5-d]pyrimidin-5-yl)benzoyl)piperidine-3-carboxylic acid] | ≤ 10 µM | 10 to 50 µM
CCOc1cc(N2CCCC(C(=O)O)C2)ccc1-c1nc2[nH]nnc2c(=O)[nH]1 (stereo not shown) [Compound 173, 1-(3-ethoxy-4-(7-oxo-6,7-dihydro-3H-[1,2,3]triazolo[4,5-d]pyrimidin-5-yl)phenyl)piperidine-3-carboxylic acid] | ≤ 10 µM | ≤ 10 µM
CCOc1cc(Cc2ccccc2)ccc1-c1nc2[nH]nnc2c(=O)[nH]1 [Compound 174, 5-(4-benzyl-2-ethoxyphenyl)-3,6-dihydro-7H-[1,2,3]triazolo[4,5-d]pyrimidin-7-one] | ≤ 10 µM | ≤ 10 µM
CCOc1cc(Cc2ccccc2C(=O)O)ccc1-c1nc2[nH]nnc2c(=O)[nH]1 [Compound 175, 2-(3-ethoxy-4-(7-oxo-6,7-dihydro-3H-[1,2,3]triazolo[4,5-d]pyrimidin-5-yl)benzyl)benzoic acid] | ≤ 10 µM | ≤ 10 µM
CCOc1cc(Cc2cccc(C(=O)O)c2)ccc1-c1nc2[nH]nnc2c(=O)[nH]1 [Compound 176, 3-(3-ethoxy-4-(7-oxo-6,7-dihydro-3H-[1,2,3]triazolo[4,5-d]pyrimidin-5-yl)benzyl)benzoic acid] | ≤ 10 µM | ≤ 10 µM
CCOc1cc(Cc2ccc(C(=O)O)cc2)ccc1-c1nc2[nH]nnc2c(=O)[nH]1 [Compound 177, 4-(3-ethoxy-4-(7-oxo-6,7-dihydro-3H-[1,2,3]triazolo[4,5-d]pyrimidin-5-yl)benzyl)benzoic acid] | ≤ 10 µM | ≤ 10 µM

Second part, the compound after the results:

EC50 [1] | EC50 [2] | Compound
≤ 10 µM | ≤ 10 µM | CCOc1cc(-c2c[nH]c(C(=O)O)c2)ccc1-c1nc2[nH]nnc2c(=O)[nH]1 [Compound 178, 4-(3-ethoxy-4-(7-oxo-6,7-dihydro-3H-[1,2,3]triazolo[4,5-d]pyrimidin-5-yl)phenyl)-1H-pyrrole-2-carboxylic acid]
≤ 10 µM | ≤ 10 µM | CCOc1cc(-c2ccc(O)c(C(=O)O)c2)ccc1-c1nc2[nH]nnc2c(=O)[nH]1 [Compound 179, 3′-ethoxy-4-hydroxy-4′-(7-oxo-6,7-dihydro-3H-[1,2,3]triazolo[4,5-d]pyrimidin-5-yl)-[1,1′-biphenyl]-3-carboxylic acid]
≤ 10 µM | ≤ 10 µM | CCOc1cc(-c2ccc(Cl)c(C(=O)O)c2)ccc1-c1nc2[nH]nnc2c(=O)[nH]1 [Compound 180, 4-chloro-3′-ethoxy-4′-(7-oxo-6,7-dihydro-3H-[1,2,3]triazolo[4,5-d]pyrimidin-5-yl)-[1,1′-biphenyl]-3-carboxylic acid]
≤ 10 µM | ≤ 10 µM | CCOc1cc(-c2ccc(N)c(C(=O)O)c2)ccc1-c1nc2[nH]nnc2c(=O)[nH]1 [Compound 181, 4-amino-3′-ethoxy-4′-(7-oxo-6,7-dihydro-3H-[1,2,3]triazolo[4,5-d]pyrimidin-5-yl)-[1,1′-biphenyl]-3-carboxylic acid]
≤ 10 µM | ≤ 10 µM | CCOc1cc(-c2ccc(OC)c(C(=O)O)c2)ccc1-c1nc2[nH]nnc2c(=O)[nH]1 [Compound 182, 3′-ethoxy-4-methoxy-4′-(7-oxo-6,7-dihydro-3H-[1,2,3]triazolo[4,5-d]pyrimidin-5-yl)-[1,1′-biphenyl]-3-carboxylic acid]
≤ 10 µM | ≤ 10 µM | CCOc1cc(-c2ccc(F)c(C(=O)O)c2)ccc1-c1nc2[nH]nnc2c(=O)[nH]1 [Compound 183, 3′-ethoxy-4-fluoro-4′-(7-oxo-6,7-dihydro-3H-[1,2,3]triazolo[4,5-d]pyrimidin-5-yl)-[1,1′-biphenyl]-3-carboxylic acid]
